Laboratory results: patent US8062671B2, “Oily skin preparation for external use” (Shiseido Co., Ltd., priority 2003, dated 2011)

biological target: urokinase (UK) (Homo sapiens, UniProt P00749); assay: Measuring method of UK blocking rate (S2444 substrate, absorbance 405 nm); type: biochemical; conditions: ion concentration 100 ppm; Tris-HCl buffer pH7.5
Description: About the complex powder of this invention, zinc oxide elutes zinc ion and inactivates plasminogen activator. UK is a kind of plasminogen activator. Measuring method of UK blocking rate. […] Thereafter, 20 μL of 12% trichloroacetic acid solution is added to stop the reaction, and powder is filtered. Absorbance of the filtrate at 405 nm is measured to obtain UK activity in an assessment system and UK blocking rate of the sample is calculated.

SMILES | UK blocking rate (%)
[Al+3] [Al^3+] | 16%
[Ba+2] [Ba^2+] | 0%
[Ca+2] [Ca^2+] | 0%
[Ce+3] [Ce^3+] | 5%
[Co+2] [Co^2+] | 27%
[Cu+2] [Cu^2+] | 36%
[K+] [K^+] | 0%
[Li+] [Li^+] | 0%
[Mg+2] [Mg^2+] | 0%
[Mn+2] [Mn^2+] | 0%
[Na+] [Na^+] | 0%
[Ni+2] [Ni^2+] | 30%
[Zn+2] [Zn^2+, zinc ion] | 52%
[Zr+4] [Zr^4+] | 45%
